Laboratory results reported in ChEMBL document CHEMBL3046046, “Design, synthesis, and QSAR study of novel 2-(2,3-dioxo-2,3-dihydro-1H-indol-1-yl)-N-phenylacetamide derivatives as cytotoxic agents” (Med Chem Res, 2011).

Tests used:
Vero = assay: Cytotoxicity against Chlorocebus aethiops (African green monkey) Vero cells after 72 hr by XTT assay; assay type: cell-based; details: Chlorocebus sabaeus
MCF7 [1] = assay: Cytotoxicity against Homo sapiens (human) MCF7 cells after 72 hr by XTT assay; assay type: functional, cell-based; details: MCF7, 72 h
MCF7 [2] = assay: Cytotoxicity against Homo sapiens (human) MCF7 cells assessed as cell survival after 72 hr by XTT assay; assay type: functional; design: concentration or dose not given beside the values
[3] = Cytotoxicity against Chlorocebus aethiops (African green monkey) Vero cells assessed as cell survival after 72 hr by XTT assay; assay type: cell-based; design: concentration or dose not given beside the values; details: chlorocebus sabaeus, read-out: Activity

In the case of `O=C(CN1C(=O)C(=O)c2cc(Br)cc(Br)c21)Nc1ccccc1`, the IC50 (Vero) is reported as 28.1 µM and the IC50 (MCF7 [1]) is reported as 3.91 µM.

For `O=C(CN1C(=O)C(=O)c2cc(Br)cc(Br)c21)Nc1ccc([N+](=O)[O-])cc1`, the IC50 (Vero) was 38.1 µM and the IC50 (MCF7 [1]) was 1.96 µM.

`O=C(CN1C(=O)C(=O)c2ccccc21)Nc1ccccc1` showed an Activity (MCF7 [2]) of over 50% and a viability at 72 h [3] of over 50%.

For `Cc1ccccc1NC(=O)CN1C(=O)C(=O)c2cc(Br)cc(Br)c21`, the IC50 (Vero) was 29.9 µM and the IC50 (MCF7 [1]) was 3.85 µM.

For `Cc1ccc(NC(=O)CN2C(=O)C(=O)c3ccccc32)cc1`, the Activity (MCF7 [2]) was over 50% and the viability at 72 h [3] was over 50%.

`Cc1ccccc1NC(=O)CN1C(=O)C(=O)c2ccccc21` gave an Activity (MCF7 [2]) of over 50% and a viability at 72 h [3] of over 50%.

With `O=C(CN1C(=O)C(=O)c2ccccc21)Nc1ccc([N+](=O)[O-])cc1` the Activity (MCF7 [2]) was over 50% and the viability at 72 h [3] was over 50%.

Work on `O=C(CN1C(=O)C(=O)c2cc(Br)cc(Br)c21)Nc1ccccc1[N+](=O)[O-]` yielded an IC50 (Vero) of 26 µM and an IC50 (MCF7 [1]) of 2.04 µM.

For `Cc1ccc(NC(=O)CN2C(=O)C(=O)c3cc(Br)cc(Br)c32)cc1`, the IC50 (Vero) was 25 µM and the IC50 (MCF7 [1]) was 2.43 µM.

For `CC[C@]1(O)C[C@@H]2CN(CCc3c([nH]c4ccccc34)[C@@](C(=O)OC)(c3cc4c(cc3OC)N(C)[C@H]3[C@@](O)(C(=O)OC)[C@H](OC(C)=O)[C@]5(CC)C=CCN6CC[C@]43[C@@H]65)C2)C1` [VINBLASTINE], the IC50 (Vero) was 27.1 µM and the IC50 (MCF7 [1]) was 1.9 µM.

Work on `O=C(CN1C(=O)C(=O)c2ccccc21)Nc1ccccc1[N+](=O)[O-]` yielded an Activity (MCF7 [2]) of over 50% and a viability at 72 h [3] of over 50%.
